# Laboratory results taken from PubChem BioAssay AID602191 (Broad Institute, 2012).
# Active and inactive are the calls of the source.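 How the source made its calls: active means fitted curve reaches 40% activation at a concentration no higher than the top valid tested dose; inconclusive means flat fit between 30% and 70% activation, or poor fit; inactive means uptake decrease, flat fit within 30% of zero, the rest.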
# Target: Scavenger receptor class B member 1 (Mus musculus) (UniProt Q61009)
# Assay: enhancers of DiI-HDL lipid transfer via SR-BI – cell-based, ldlA[mSR-BI] CHO, DiI fluorescence, cherry-pick, dose response (AID 602191);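 further: cell fluorescence from internalized DiI-labeled HDL after washing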;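 on AC40: potency of activators raising HDL uptake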;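 on activation (HDL uptake increase): 0% = median of DMSO wells and 100% = twice the DMSO signal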
# Conditions: ldlA[mSR-BI] CHO cells, 3 h; for activation (HDL uptake increase): at 35 µM (top of the series); for AC40: DiI-HDL uptake fluorescence
# Scavenger receptor class B member 1 (Mus musculus), sequence (Q61009 whole entry, looked up): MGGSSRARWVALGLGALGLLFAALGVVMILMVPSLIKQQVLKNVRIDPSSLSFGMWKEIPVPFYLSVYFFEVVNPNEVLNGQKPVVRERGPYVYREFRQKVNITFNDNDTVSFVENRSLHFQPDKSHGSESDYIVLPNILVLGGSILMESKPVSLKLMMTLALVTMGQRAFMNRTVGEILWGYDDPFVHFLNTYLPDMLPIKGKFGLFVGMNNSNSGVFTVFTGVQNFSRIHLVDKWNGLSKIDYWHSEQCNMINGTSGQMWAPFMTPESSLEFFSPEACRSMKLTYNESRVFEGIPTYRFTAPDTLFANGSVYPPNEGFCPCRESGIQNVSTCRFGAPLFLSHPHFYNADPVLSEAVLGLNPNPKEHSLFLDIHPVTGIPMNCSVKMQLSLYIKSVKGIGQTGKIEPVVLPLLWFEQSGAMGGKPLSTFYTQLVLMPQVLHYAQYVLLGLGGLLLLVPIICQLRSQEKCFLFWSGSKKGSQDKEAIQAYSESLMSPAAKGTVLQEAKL
SMILES,activation (HDL uptake increase),AC40
COc1ccc(/C(O)=C2/C(=O)C(=O)N(CCN3CCOCC3)C2c2ccccn2)cc1 (stereo unspecified),-1.9% (inactive),–
O=C(Cc1ccc(S(=O)(=O)N2CCOCC2)s1)OCc1ccc(Cl)cc1,-16.7% (inactive),–
O=C1C2C3C=CC(C4CC34)C2C(=O)N1c1nccs1 (stereo unspecified),-0.437% (inactive),–
O=C1N(C2CCCC2)C[C@@H]2C[C@@H](c3cn[nH]c3-c3ccc(Cl)cc3)N3CCC[C@@]123,0.818% (inactive),–
O=S(=O)(c1ccccc1F)N1CCN(Cc2cc3c(cc2Br)OCCO3)CC1,-16.4% (inactive),–
O=C1C2C(c3ccccc3)CC=CC2[C@H](c2ccc(C(F)(F)F)cc2)N1Cc1ccccc1 (stereo partly specified),-16.7% (inactive),–
COc1ccc(NC(=O)CN(C)C(=O)CCC2CCCC2)cc1,-6.8% (inactive),–
O=C(CNC(=O)c1ccc(Cl)cc1)NCC(F)(F)F,-9.51% (inactive),–
COc1ccc(OC)c(S(=O)(=O)N2CCN(C(=O)CCc3ccccc3)CC2)c1,-1.31% (inactive),–
COC(=O)[C@@]12CCCCN1[C@H](c1ccc(-c3ccc(C(C)=O)cc3)c(OC)c1)[C@@H]1C(=O)N(C)C(=O)[C@@H]12,-14% (inactive),–
Cc1cc(Cl)ccc1OCC(=O)OCC(=O)N1CCC(C(N)=O)CC1,-16.7% (inactive),–
CC(C)C[C@H]1CNC(=S)N1CC1CCCN1C[C@H](Cc1ccccc1)N1C[C@H](Cc2ccc(O)cc2)N(CC2CCCCC2)C1=S (stereo partly specified),-0.934% (inactive),–
COc1ccc(N(CC(=O)NCCSc2ccccn2)S(=O)(=O)c2ccc(C)cc2)cc1OC,-0.821% (inactive),–
CCOC(=O)C1=C(COC(=O)[C@H](C)NS(=O)(=O)c2ccc(NC(C)=O)cc2)NC(=O)NC1C (stereo partly specified),-9.73% (inactive),–
O=C(OCCc1cc2ccccc2c(=O)o1)c1ccc(F)cc1,-13.6% (inactive),–
CCc1ccc(C(=O)CN2C(=O)NC(C)(CCc3ccccc3)C2=O)cc1 (stereo unspecified),-8.25% (inactive),–
COc1ccc(CN(C(=O)c2cnccn2)C(C(=O)Nc2ccc(F)cc2)c2ccccc2)cc1 (stereo unspecified),-4.64% (inactive),–
CCCCc1nc2cc(C(=O)NCc3ccccn3)ccc2o1,-3.25% (inactive),–
O=C(O)COCC(=O)N1CCc2c([nH]c3ccccc23)C1C(F)(F)F (stereo unspecified),-5.94% (inactive),–
O=C(c1ccco1)N1CCN(C(=S)Nc2ccc(F)c(Cl)c2)CC1,-12.3% (inactive),–
O=C(OCCc1cc2ccccc2c(=O)o1)c1ccco1,-0.117% (inactive),–

SMILES,activation (HDL uptake increase),AC40
COc1ccccc1C(=O)NNC(=S)NC(=O)c1sc2ccccc2c1Cl,-16.5% (inactive),–
COC(=O)CNC(=O)COC(=O)c1cc(Cl)cc(Cl)c1N,-8.63% (inactive),–
O=C(NC1CCCCCC1)C1c2ccccc2C(=O)N1CCCN1CCOCC1 (stereo unspecified),-1.53% (inactive),–
NCCCC[C@H]1CNC(=O)C(=O)N1CCc1cccc(F)c1,–,> 35 µM (inactive)
Nc1nonc1-n1nnc(C(=O)N/N=C/c2cccs2)c1CSc1ccccc1,-1.92% (inactive),–
Cc1ccc(S(=O)(=O)NC(=O)COc2ccccc2C)c(C)c1,11.3% (inactive),–
Cc1ccc(NC(=O)COC(=O)Cn2ccc(=O)[nH]c2=O)cc1C,-10.8% (inactive),–
O=C1[C@H]2[C@@H](c3ccc(F)cc3)N3C(=O)N(c4ccc(Br)cc4)C(=O)[C@@]3(Cc3ccccc3)[C@H]2C(=O)N1C1CCCCC1,6.23% (inactive),–
COc1cccc(OCc2cc(C(=O)NC3CCOCC3)no2)c1,-16.2% (inactive),–
CC1CC(C)CN(C(=O)CN2CCN(Cc3ccc(Cl)cc3)C2=O)C1 (stereo unspecified),-4.58% (inactive),–
COc1ccc(S(=O)(=O)N2CCOCC2)cc1NC(=O)COC(=O)C1CC2CCCC(C1)C2=O (stereo unspecified),-6.79% (inactive),–
CCOc1ccc(CN2CCNC(=O)C2CC(=O)NCC2CCOCC2)cc1 (stereo unspecified),–,> 35 µM (inactive)
CCOC(=O)C1CCCN(S(=O)(=O)c2ccc(S(=O)(=O)N3CCCC3)cc2)C1 (stereo unspecified),-3.5% (inactive),–
O=C(Nc1ccc(S(=O)(=O)Nc2ccccc2F)cc1)N1CCCCC1,-17.5% (inactive),–
COC(=O)Cc1c(C)c2ccc(OCc3nn[nH]n3)cc2oc1=O,4.87% (inactive),–
COc1ccccc1N(CC(=O)Nc1cc(C)on1)S(=O)(=O)c1cccc(C(F)(F)F)c1,1.11% (inactive),–
O=C(N1CCN(S(=O)(=O)c2ccc(Cl)cc2)CC1)n1ccnc1,-2.88% (inactive),–
CC(C)N1CCc2[nH]c(=S)[nH]c(=O)c2C1,-0.502% (inactive),–
CCCC(=O)OCC(=O)Nc1ccc(OC(F)F)cc1,1.74% (inactive),–
COc1cccc(C(=O)COC(=O)CCC(=O)c2ccccc2)c1,-0.792% (inactive),–
CCc1ccc2[nH]c(=O)c(CN(CCN(C)C)C(=O)Nc3ccccc3OC)cc2c1,-2.31% (inactive),–

SMILES,activation (HDL uptake increase),AC40
O=C(CN1C(=O)NC2(CCCC2)C1=O)Nc1ccc(Cl)c(C(F)(F)F)c1,-11.2% (inactive),–
O=C(Nc1cccc(S(=O)(=O)NC2=NCCC2)c1)c1ccc(F)cc1F,-14.5% (inactive),–
CCN1CCN(c2ccc(S(=O)(=O)N3CCCCC3)cc2NC(=O)c2cccc(C(F)(F)F)c2)CC1,7.47% (inactive),–
Cc1ccc(C2(CCNCc3ccc(N(C)C)cc3)CCOC(C(C)C)C2)cc1 (stereo unspecified),-1.19% (inactive),–
Cc1ccc(NC(=O)c2nc[nH]c2C(=O)NCCN(CCNC(=O)c2[nH]cnc2C(=O)Nc2ccc(C)cc2)CCNC(=O)c2[nH]cnc2C(=O)Nc2ccc(C)cc2)cc1,8.14% (inactive),–
COC(=O)C1(C)NC(c2ccccc2OC)C2C(=O)N(c3ccccc3)C(=O)C21 (stereo unspecified),7.27% (inactive),–
O=C(C1=C[C@@H](c2ccc(Br)cc2)C[C@@H](OCc2ccc(CO)cc2)O1)N1CCN(Cc2ccccc2)CC1,0.848% (inactive),–
CC(C)C[C@@H](CN1CCCC1CN1C(=S)NC[C@@H]1Cc1ccc(O)cc1)N1C[C@H](Cc2ccc(O)cc2)N(CC2CCCCCC2)C1=S (stereo partly specified),1.49% (inactive),–
Cc1ccc(S(=O)(=O)N2CCOCC2)cc1C(=O)NCc1ccccc1CN1CCCC1,-7.63% (inactive),–
Cc1ccc(S(=O)(=O)c2cc(OC(=O)c3ccco3)ccc2OC(=O)c2ccco2)cc1,-6.59% (inactive),–
CCCCn1c(CN2CCN(C(=O)c3ccco3)CC2)nc2c1c(=O)n(C)c(=O)n2C,2.07% (inactive),–
CCN1CCN(C(=O)/C(=C/c2ccco2)NC(=O)c2ccccc2)CC1,-3.29% (inactive),–
C[C@@H](C(=O)OCC(=O)c1ccccc1)N1C(=O)C2CCCCC2C1=O (stereo partly specified),-7.88% (inactive),–
CCC1C(=O)NCCN1C(=O)c1ccc(OC)c(OC2CCN(C(C)=O)CC2)c1 (stereo unspecified),-6.7% (inactive),–
COc1ccc(Cn2c(N)c(S(=O)(=O)c3cccs3)c3nc4ccccc4nc32)cc1,-19.6% (inactive),–
COc1cccc(/C=N/n2c(SC)nnc2-c2ccccc2)c1O,-1.1% (inactive),–
NCCCC[C@H]1CNC(=O)C(=O)N1CCc1cccc2ccccc12,-5.05% (inactive),–
Cc1ccc(OCC(=O)N(C)CC(=O)NCc2ccco2)c(Br)c1,-24.2% (inactive),–
COC(=O)C(Cc1ccc(O)cc1)NC(=O)C1CCN(S(=O)(=O)c2ccc(C)cc2)CC1 (stereo unspecified),-2.45% (inactive),–
CN1CCN(S(=O)(=O)c2cccc(C(=O)NC3(C)CCS(=O)(=O)C3)c2)CC1 (stereo unspecified),-5.92% (inactive),–
Cc1ccc(S(=O)(=O)NC(=O)Nc2nnc(C3CC3)s2)cc1,9.12% (inactive),–

SMILES,activation (HDL uptake increase),AC40
Cc1ccc(S(=O)(=O)N2CCC(=O)N(CCOCc3cccc(F)c3)CC2)cc1,5.46% (inactive),–
Cc1c(C(=O)N2CCC(C(N)=O)CC2)sc(N)c1C#N,-8.06% (inactive),–
COCCNC(=O)c1cnn2c1NC(c1ccco1)CC2C(F)(F)F (stereo unspecified),-4% (inactive),–
CN1OC[C@@H]2CN[C@H](c3cccc(-c4cc(Cl)cc(Cl)c4)c3)C[C@@H]21,5.62% (inactive),–
COc1ccc(S(=O)(=O)N(C)C[C@H]2Oc3c(NC(=O)Nc4ccc(C(F)(F)F)cc4)cccc3C(=O)N([C@H](C)CO)C[C@@H]2C)cc1,–,33.2 µM
O=C(NCc1cccs1)C1CCCN(C(=O)Nc2ccccc2)C1 (stereo unspecified),7.76% (inactive),–
CCN1CCN(c2ccc(S(=O)(=O)N3CCOCC3)cc2NC(=O)C2CCC(C(C)(C)C)CC2)CC1 (stereo unspecified),–,> 35 µM (inactive)
Cc1ccc(C(=O)NCCc2cccs2)cc1,1.64% (inactive),–
C[C@@H]1CN([C@@H](C)CO)C(=O)Cc2cc(NC(=O)Nc3ccc(F)cc3)ccc2O[C@@H]1CN(C)Cc1ccc(Cl)c(Cl)c1,94.8% (inactive),–
Cc1nc2c3ccccc3nc(NNC(=O)CCC(=O)N3CCN(c4ccccc4)CC3)n2n1,6.41% (inactive),–
CCN(CC(=O)Nc1c(F)cccc1F)C(=O)CCCc1nc2ccccc2c(=O)[nH]1,-5.94% (inactive),–
COc1ccccc1C(=O)NCC(=O)NCc1cc(=O)n(C)c(=O)n1C,-3.18% (inactive),–
CC1Cc2cc(/C(O)=C3/C(=O)C(=O)N(CCN4CCOCC4)C3c3ccc([N+](=O)[O-])cc3)ccc2O1 (stereo unspecified),13.1% (inactive),–
Cc1ccc(O)c(NC(=S)NC(=O)c2ccc(-c3ccc(Cl)cc3)o2)c1,-9.38% (inactive),–
COc1ccccc1CNC(=O)COC(=O)CSc1ccc(C)c(C)c1,-0.519% (inactive),–
O=S1(=O)CCO[C@H]2Cc3ccccc3[C@H]2N1Cc1ccccc1,-12.6% (inactive),–
O=C1CN(C(=O)COC(=O)C2=COCCO2)c2ccccc2N1,7.62% (inactive),–
O=S(=O)(c1ccccc1)N1CCN(Cc2c(O)ccc3ccccc23)CC1,-12% (inactive),–
